According to BigSolDB 2.1:

O=C(O)CSc1ccc2ccccc2c1
solubility (mole fraction)
Conditions | 278.15 K | 283.15 K | 288.15 K | 293.15 K | 298.15 K | 303.15 K | 308.15 K | 313.15 K | 318.15 K | 323.15 K
in DMF | 0.00524 | 0.00586 | 0.0066 | 0.00738 | 0.00828 | 0.00917 | 0.0101 | 0.0112 | 0.0122 | 0.0135
in ethanol | 0.0014 | 0.0018 | 0.00234 | 0.00282 | 0.00336 | 0.00394 | 0.00456 | 0.0052 | 0.00584 | 0.00669
in isopropanol | 0.000227 | 0.0003 | 0.000383 | 0.000481 | 0.00058 | 0.000682 | 0.000801 | 0.000919 | 0.00105 | 0.0012
in methanol | 0.00053 | 0.000675 | 0.000828 | 0.00102 | 0.00119 | 0.0014 | 0.0016 | 0.0018 | 0.00204 | 0.00235
in water | 1.42e-06 | 1.95e-06 | 2.54e-06 | 3.16e-06 | 3.88e-06 | 4.53e-06 | 5.33e-06 | 6.1e-06 | 7e-06 | 8.05e-06
